According to patent US6693123B2 (University of Pittsburgh, priority 1995, dated 2004):
Counter-ions that a name gives are not always drawn. Like-named read-outs stand apart in the source and are kept apart here. Each block holds one compound with its values, some of them ahead of it.

Target: T1, Rat brain protein farnesyltransferase (Rattus norvegicus, UniProt Q02293+Q04631)
T1 construct: The enzyme is purified according to Reiss, Y., et al., Cell, 62: 81-88 (1990), utilizing steps one through three; from tissue; host or cells: rat brain
Test: In vitro inhibition of protein farnesyltransferase, Amersham scintillation proximity assay with biotin-K Ras B fragment
Assay type: biochemical
Details: for inhibition at 1 µM: read-out: % inhibition at 1 × 10^−6 M

[1] = Inhibition of farnesyltransferase, compound at 1 × 10^−6 M (Table 2)
[2] = read-out: % inhibition at 0.01 μM
[3] = Inhibition of farnesyltransferase, compound at 0.01 μM (Table 6, values marked **), read-out: % inhibition at 0.01 μM
[4] = Inhibition of farnesyltransferase, compound at 1 × 10^−8 M (Table 4), read-out: % inhibition at 1 × 10^−8 M

- inhibition at 1 µM [1]: 98%
Compound: CSCC[C@H](NC(=O)c1ccc(NC(=O)c2cccnc2)cc1-c1ccccc1C)C(=O)O [Example 301, [4-(3-Pyridylcarbonylamino)-2-(2-methylphenyl)benzoyl]methionine]

Compound: CSCC[C@H](NC(=O)c1ccc(/C=C(/C(=O)OC(C)(C)C)c2cccnc2)cc1-c1ccccc1C)C(=O)O [Example 1077, N-[4-(E-2-t-Butoxycarbonyl-2-pyrid-3-ylethenyl)-2-(2-methylphenyl)benzoyl]methionine, Lithium Salt]
- inhibition at 0.01 µM [2]: 93%

Compound: CSCCC(NC(=O)c1ccc(C=Cc2cccnc2)cc1-c1ccccc1C)C(=O)NS(=O)(=O)c1ccc(C)cc1 (stereo not shown) [Example 277, {4-[2-(Pyrid-3-yl)ethenyl]-2-(2-methylphenyl)benzoyl}methionine 4-Tolylsulfonamide]
- % inhibition at 1 × 10^−6 M [1]: 98%

Compound: CSCC[C@H](NC(=O)c1ccc(/C=C(\C#N)c2cccnc2)cc1-c1ccccc1C)C(=O)O [Example 1076, N-[4-(Z-2-Cyano-2-pyrid-3-ylethenyl)-2-(2-methylphenyl)benzoyl]methionine, Lithium Salt]
- inhibition at 0.01 µM [2]: 69%

Compound: N-[4-(3-Imidazol-1-ylprolpylaminosulfonyl)-2-phenylbenzoyl]methionine Lithium Salt [Example 777]
- % inhibition at 1 × 10^−6 M [1]: 83%

Compound: COc1cccc(-c2cc(COc3cccnc3)ccc2C(=O)N[C@@H](CCSC)C(=O)O)c1 [Example 208]
- % inhibition at 1 × 10^−6 M [1]: 98%

- inhibition at 1 µM [1]: 98%
Compound: COc1ccncc1NCc1ccc(C(=O)N[C@@H](CCSC)C(=O)O)c(-c2ccccc2)c1 [Example 281, [4-(4-Methoxypyrid-3-ylaminomethyl)-2-phenylbenzoyl]methionine Sodium Salt]

- inhibition at 0.01 µM [3]: 83%
Compound: CCCOc1ccncc1C=Cc1ccc(C(=O)N[C@@H](CCSC)C(=O)O)c(-c2ccccc2C)c1 [Example 1362, N-[4-(2-(4-Propyloxypyridin-3-yl)ethenyl)-2-(2-methylphenyl)benzoyl]methionine Sodium Salt]

Compound: CSCC[C@H](NC(=O)c1ccc(CN(Cc2cc(F)cc(F)c2)c2cccnc2)cc1-c1ccccc1C)C(=O)O [Example 1360, N-[4-N-3,5-Difluorobenzyl-N-(3-pyridyl)aminomethyl-2-(2-methylphenyl)benzoyl]methionine Lithium Salt]
- inhibition at 0.01 µM [2]: 98%

- inhibition at 1 µM [1]: 98%
Compound: CSCC[C@H](NC(=O)c1ccc(CN(Cc2ccccc2)c2cccnc2)cc1-c1ccccc1C)C(=O)OCOC(=O)C(C)(C)C [Example 500, Pivaloyloxymethyl N-[4-N-Benzyl-N-pyridin-3-ylaminomethyl-2-(2-methylphenyl)benzoyl]methionine]

Compound: CSCC[C@H](NC(=O)c1ccc(/C=C(\C(=O)OC(C)(C)C)c2cccnc2)cc1-c1ccccc1C)C(=O)O [Example 1078, N-[4-(Z-2-t-Butoxycarbonyl-2-pyrid-3-ylethenyl)-2-(2-methylphenyl)benzoyl]methionine, Lithium Salt]
- inhibition at 0.1 µM (read-out: % inhibition at 0.1 μM): 86%

- inhibition at 1 µM [1]: 88%
Compound: CSCC[C@@H](NC(=O)c1ccc(CNc2cccnc2)cc1-c1ccccc1)C(=O)O (stereo in doubt) [Example 189, [4-(3-Pyridylaminomethyl)-2-phenylbenzoyl]methionine]

Compound: CSCC[C@H](NC(=O)c1ccc(C(=O)N(Cc2ccccc2)c2cccnc2)cc1-c1ccccc1C)C(=O)O [Example 451, N-[4-(N-3-Pyridyl-N-benzyl)carbonyl-2-(2-methylphenyl)benzoyl]methionine]
- inhibition at 1 µM: 85%

- inhibition at 1 µM [1]: 4%
Compound: COC(=O)[C@H](CCSC)NC(=O)c1ccc(COc2cccnc2)cc1-c1ccccc1 [Example 234, [4-(3-Pyridyloxymethyl)-2-phenylbenzoyl]methionine Methyl Ester]

Compound: CSCC[C@H](NC(=O)c1ccc(/C=C/c2cnccc2Cl)cc1-c1ccccc1C)C(=O)O [Example 1040, N-[4-(2-(4-Chloropyridin-3-yl)ethenyl)-2-(2-methylphenyl)benzoyl]methionine Lithium Salt]
- inhibition at 0.01 µM [2]: 90%

- inhibition at 1 µM [1]: 55%
Compound: CS(=O)(=O)CC[C@H](NC(=O)c1ccc(C(O)C(O)c2cccnc2)cc1-c1ccccc1)C(=O)O (mixture of isomers) [Example 221, N-{4-[2-(Pyrid-3-yl)-1,2-dihydroxyethyl]-2-phenylbenzoyl]-2-amino-4-(methylsulfonyl)butanoic Acid]

Compound: CSCC[C@H](NC(=O)c1ccc(CCc2ccc(Oc3ccccc3)nc2)cc1-c1ccccc1C)C(=O)O [Example 801, N-[4-(2-(6-Phenyloxypyrid-3-yl)ethyl)-2-(2-methylphenyl)benzoy]methionine Lithium Salt]
- inhibition at 0.1 µM (read-out: % inhibition at 1 × 10^−7 M): 87%

Compound: CSCC[C@H](NC(=O)c1ccc(/C=C/n2ccnc2)cc1-c1ccccc1)C(=O)O [Example 217, {4-[2-(1-H-Imidazole-1-yl)ethenyl]-2-phenylbenzoyl}methionine Sodium Salt]
- inhibition at 1 µM: 99%

- inhibition at 0.1 µM (Inhibition of farnesyltransferase, compound at 1 × 10^−7 M (Table 3), read-out: % inhibition at 1 × 10^−7 M): 96%
Compound: CSCC[C@H](NC(=O)c1ccc(/C=C/c2cnccc2C2(O)CCCCC2)cc1-c1ccccc1C)C(=O)O [Example 482, N-[4-(2-(4-Cyclohexan-1-ol-1-yl)-pyrid-3-ylethen-1-yl)-2-(2-methylphenyl)benzoyl]methionine Lithium Salt]

Compound: CSCC[C@H](NC(=O)c1ccc(CN(Cc2ccccc2)c2cccnc2)cc1-c1ccccc1C)C(=O)OCOC(C)=O [Example 499, Acetoxymethyl N-[4-N-Benzyl-N-pyridin-3-ylaminomethyl-2-(2-methylphenyl)benzoyl]methionine]
- inhibition at 1 µM [1]: 98%

- inhibition at 1 µM [1]: 92%
Compound: CS(=O)(=O)CC[C@H](NC(=O)c1ccc(/C=C/c2cccnc2)cc1-c1ccccc1)C(=O)O [Example 220, N-{4-[2-(Pyrid-3-yl)ethenyl]-2-phenylbenzoyl]-2-amino-4-(methylsulfonyl)butanoic Acid]

- inhibition at 1 µM [1]: 4%
Compound: CSCC[C@H](NC(=O)c1ccc(NCc2cccnc2)cc1-c1ccccc1)C(=O)OCCC(C)C [Example 193, [4-(3-Pyridylmethylamino)-2-phenylbenzoyl]methionine Isoamyl Ester]

- inhibition at 10 µM (Inhibition of farnesyltransferase, compound at 1 × 10^−5 M (Table 1)): > 50%
Compound: CC(C)C[C@H](NC(=O)c1ccc(NCc2cccnc2)cc1-c1ccccc1)C(=O)O [Example 390, 5-[N-(3-Pyridinyl)methylamino-2-phenylbenzoyl]leucine]

Compound: CSCC[C@H](NC(=O)c1ccc(NC(=O)c2cnccc2C(F)(F)F)cc1-c1ccccc1)C(=O)O [Example 282, [4-(4-Trifluoromethylpyrid-3-ylcarbonylamino)-2-phenylbenzoyl]methionine Sodium Salt]
- inhibition at 1 µM: 76%

- inhibition at 0.01 µM [4]: 50%
Compound: COc1ccccc1-c1cc(NCc2cnc[nH]2)ccc1C(=O)N[C@@H](CC(C)C)C(=O)O [Example 397]

Compound: CSCC[C@H](NC(=O)c1ccc(/C=C/n2ccnc2)cc1-c1ccccc1C)C(=O)O [Example 278, {4-[2-(1H-1-Imidazolyl)ethenyl]-2-(2-methylphenyl)benzoyl}methionine Sodium Salt]
- inhibition at 1 µM: 99%

- inhibition at 1 µM [1]: 92%
Compound: CSCC[C@H](NC(=O)c1ccc(NC(=O)c2c[nH]cn2)cc1-c1ccccc1)C(=O)O [Example 168, [4-(1H-Imidazol-4-ylcarbonyl)amino-2-phenylbenzoyl]methionine Hydrochloride]

- inhibition at 1 µM [1]: 95%
Compound: CSCC[C@H](NC(=O)c1ccc(NCc2cccnc2)cc1-c1ccccc1)C(=O)O [Example 192, [4-(3-Pyridylmethylamino)-2-phenylbenzoyl]methionine]

- inhibition at 1 µM [1]: 94%
Compound: CSCC[C@H](NC(=O)c1ccc(CNc2cccnc2)cc1-c1ccccc1)C(=O)O [Example 227, [4-(Pyrid-3-ylaminomethyl)-2-phenylbenzoyl]methionine]

- inhibition at 1 µM [1]: 86%
Compound: CSCC[C@H](NC(=O)c1ccc(NC(=O)c2nccn2C)cc1-c1ccccc1)C(=O)O [Example 186, [4-(1H-1-Methylimidazol-2-ylcarboxyamino)-2-phenylbenzoyl]methionine]

- inhibition at 1 µM [1]: 93%
Compound: CSCC[C@H](NC(=O)c1ccc(CNCc2c[nH]cn2)cc1-c1ccccc1)C(=O)O [Example 225, [4-(1H-Imidazol-4-ylmethylaminomethyl)-2-phenylbenzoyl]methionine]

- inhibition at 1 µM [1]: 95%
Compound: CSCC[C@H](NC(=O)c1cc(Cc2ccccc2)c(COc2cccnc2)cc1-c1ccccc1C)C(=O)O [Example 344]

- % inhibition at 1 × 10^−6 M [1]: 93%
Compound: CCNC(=O)CC[C@H](NC(=O)c1ccc(COc2cccnc2)cc1-c1ccccc1C)C(=O)O [Example 315, (S)-2-N-[4-(3-Pyridyloxymethyl)-2-(2-methylphenyl)benzoyl]amino-4-(N-ethylaminocarbonyl)butanoic Acid]

- inhibition at 1 µM [1]: 99%
Compound: CSCC[C@H](NC(=O)c1ccc(CSCc2c[nH]cn2)cc1-c1ccccc1)C(=O)O [Example 242, [4-(1H-Imidazol-4-ylmethylthiomethyl)-2-phenylbenzoyl]methionine]

- inhibition at 0.01 µM [3]: 88%
Compound: CSCC[C@H](NC(=O)c1ccc(C=Cc2cnccc2OCc2cc(F)cc(F)c2)cc1-c1ccccc1C)C(=O)O [Example 1363, N-[4-(2-(4-(3,5-Difluorobenzyl)oxypyridin-3-yl)ethenyl)-2-(2-methylphenyl)benzoyl]methionine Sodium Salt]

- inhibition at 0.01 µM [4]: 84%
Compound: CSCC[C@H](NC(=O)c1ccc(CN(Cc2ccccc2)c2cccnc2)cc1-c1ccccc1C(F)(F)F)C(=O)O [Example 409, [4-(N-Benzyl-N-3-pyridylaminomethyl)-2-(2-trifluoromethylphenyl)benzoyl]methionine]

Compound: CSCC[C@H](NC(=O)c1ccc(NC(=O)c2cnccc2C(F)(F)F)cc1-c1ccccc1C)C(=O)[O-].[Li+] [Example 481, N-[4-N-(4-Trifluoromethylnicotinoyl)amino-2-(2-methylphenyl)benzoyl]methionine Lithium Salt]
- % inhibition at 1 × 10^−6 M [1]: 95%
